{"source": "paper PMC12388506", "about": "“Preclinical Evaluation of 2-Aminobenzothiazole Derivatives: In Silico, In Vitro, and Preliminary In Vivo Studies as Diabetic Treatments and Their Complications” (Molecules, 2025)", "key": {"ALR2 enzyme": {"molecular_target": "T1, ALR2 enzyme (Homo sapiens, UniProt P15121)", "T1 construct": "purchased ab273276", "assay": "ALR2 activity assay kit (ab273276), inhibition;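 for relative ALR2 inhibition: inhibition calculated from the rate of NADPH cofactor consumption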", "assay_type": "biochemical", "method": "The obtained dose–response curve had concentrations of 10 μM, 5 μM, 500 nM, 50 nM, and 5 nM."}, "male Wistar rat": {"test_system": "male Wistar rat", "assay": "Acute oral toxicity, Up and Down procedure (OECD 425)", "assay_type": "in vivo", "set-up": "Heart weight / IWA (initial weight of animals) / FWA (final weight of animals) / Spleen weight / Liver weight / Intestine weight / Stomach weight / Kidney weight: unit not given here", "method": "All synthesized compounds (8c, 8d, and 12d as a racemic mixture) were suspended in 2% Tween 80 in water and administered orally by an esophageal cannula following the “Up and Down” methodology. Nevertheless, compounds could not be solubilized in the desired volume to complete the highest dose (1750 mg/Kg), so the toxicity test was performed with a maximum dose of 1250 mg/Kg. Even so, the values obtained indicate that these compounds are classified within toxicity category 4 according to the guidelines established by the Organization for Economic Co-operation and Development (OECD).\nThe “Up and Down” procedure of OECD Guideline 425 was used to estimate the LD50 value of synthesized compounds. Briefly, a dose of 175 mg/Kg was administered to a male Wistar rat, which was monitored continuously for 48 h. As the animal survived, a second animal received a dose of 550 mg/Kg, and, as it survived, a third animal received an increasing dose of 1750 mg/Kg. Finally, two other rats were administered the same dose. All animals were kept under observation for 14 days, and 24 h later, they were taken to the humane endpoint for macroscopic examination of organs and tissues. Finally, the LD50 value of the compounds was estimated to determine their degree of toxicity and classified based on the GHS of Classification and Labeling of Chemicals."}, "[1]": {"test_system": "STZ-HFD-induced T2D Wistar rats", "assay": "Subchronic evaluation in STZ-HFD-induced T2D model", "assay_type": "in vivo, rat", "set-up": "HbA1c: unit not given here", "method": "In vivo experiments were conducted in an acute and a subchronic model, where Wistar rats (180–220 g) were used. The study covered a total period of 10 weeks and was carried out under the Mexican Standard, and the “Guide for the Care and Use of Laboratory Animals” of the National Research Council and Health Institutes was followed.\nAt first, animals were housed in polypropylene cages under conditions of controlled temperature (20–25 °C), relative humidity (36–60%), and light/dark cycles, with water ad libitum. Before starting the experiment, they were given a one-week acclimatization period to adapt to their new habitat. Once finalized, animals were fed an HFD for 3 weeks to generate insulin resistance.\nAfter this period, the animals fasted for 12 h and then were administered intraperitoneally with a single dose of 35 mg/Kg of STZ dissolved in a buffer of 0.1 M citrate, pH 4.5 (prepared on the same day of administration). Once administered, the hypercaloric diet was maintained, and 10% sucrose solution was placed on demand for 2 days.\nOne week after administration, postprandial blood glucose levels were measured by venipuncture using a glucometer. Those animals that maintained a glucose level between 200 and 400 mg/dL were included in the study.\nTreatments were administered daily as described above, adjusting the dose according to the weight of the individuals. Fasting glucose levels (6 h fast) were monitored every 7 days until the end of treatments at week 10 (Figure 14). Halfway through the last week of treatment, the OGTT was performed, administering a dose of 1.5 g/Kg of glucose orally and subsequently monitoring capillary blood glucose at 0, 15, 30, 60, 90, and 120 min [62]. In addition, a 24-element blood chemistry was measured in a Celercare V automated dry chemistry analyzer (Tianjin MNCHIP Technologies Co., Ltd., Tianjin, China) at the beginning and end of the model. For this purpose, the blood samples were obtained from the tail of the rat.\n(§1) At the end of the study, animals fasted for 12 h and were taken to a humane endpoint, where blood samples were obtained. These were kept at room temperature for 30 min and then centrifuged at 4000 RPM for 15 min at 4 °C. Finally, the serum was used to perform 24-element blood chemistry and quantify Trolox-equivalent TAC [86], TNF-α [87], and IL-6 levels using commercial kits from Merck (Darmstadt, Germany), Sigma-Aldrich (St. Louis, MO, USA), Cat. No. MAK334-1KT, RAB0479-1KT, and RAB0311-1KT, respectively. In addition, insulin was quantified using the Rat Ins1/Insulin ELISA Kit, from Sigma-Aldrich, No. Cat. RAB0904-1KT [89] to determine the HOMA-IR index. All kits were performed according to the manufacturer’s instructions without modifications."}, "[2]": {"test_system": "STZ-HFD-induced T2D Wistar rats", "assay": "Ex vivo serum total antioxidant capacity (Trolox equivalent)", "assay_type": "in vivo, rat", "method": "as §1"}, "IL-6": {"test_system": "IL-6", "assay": "Ex vivo serum IL-6 quantification", "assay_type": "in vivo, rat", "method": "as §1"}, "[3]": {"conditions": "1250 mg/Kg oral, necropsy, mean ± SEM"}, "[4]": {"conditions": "after the induction of T2D, before treatment"}, "[5]": {"conditions": "Table S11, After 5 weeks of treatment"}, "[6]": {"conditions": "serum, end of treatment, mean ± SEM, n = 4"}}, "data": [{"compound": "COC(=O)[C@H](Cc1ccccc1)N/C(=N\\c1nc2ccccc2s1)SC", "note": "[8d, Methyl (E)-((benzo[d]thiazol-2-ylimino)(methylthio)methyl)-L-phenylalaninate]", "values": [{"measurement": "concentrations at which ALR2 was inhibited", "setting": "ALR2 enzyme", "value": "below 10 µM"}, {"measurement": "concentration dependence of ALR2 inhibition (IC50 not calculable)", "setting": "ALR2 enzyme; 10 μM to 5 nM", "value": "did not show a concentration-dependent response"}, {"measurement": "relative ALR2 inhibition", "setting": "ALR2 enzyme; Inhibitor concentration 5 nm", "value": 93.590, "unit": "%"}, {"measurement": "relative ALR2 inhibition", "setting": "ALR2 enzyme; Inhibitor concentration 50 nm", "value": 91.644, "unit": "%"}, {"measurement": "relative ALR2 inhibition", "setting": "ALR2 enzyme; Inhibitor concentration 500 nm", "value": 86.494, "unit": "%"}, {"measurement": "relative ALR2 inhibition", "setting": "ALR2 enzyme; Inhibitor concentration 5000 nm", "value": 80.389, "unit": "%"}, {"measurement": "relative ALR2 inhibition", "setting": "ALR2 enzyme; Inhibitor concentration 10000 nm", "value": 89.966, "unit": "%"}, {"measurement": "FWA (final weight of animals)", "setting": "male Wistar rat; 1250 mg/Kg oral, after 14 days, mean ± SEM", "value": "310.57 ± 11.6"}, {"measurement": "IWA (initial weight of animals)", "setting": "male Wistar rat; 1250 mg/Kg oral, mean ± SEM", "value": "201.0 ± 7.17"}, {"measurement": "Heart weight", "setting": "male Wistar rat; [3]", "value": "1.30 ± 0.03"}, {"measurement": "Intestine weight", "setting": "male Wistar rat; [3]", "value": "29.97 ± 0.72"}, {"measurement": "Kidney weight", "setting": "male Wistar rat; [3]", "value": "2.97 ± 0.03"}, {"measurement": "Liver weight", "setting": "male Wistar rat; [3]", "value": "17.57 ± 0.50"}, {"measurement": "Spleen weight", "setting": "male Wistar rat; [3]", "value": "0.67 ± 0.07"}, {"measurement": "Stomach weight", "setting": "male Wistar rat; [3]", "value": "1.70 ± 0.10"}, {"measurement": "toxicity category (OECD)", "setting": "male Wistar rat; maximum dose 1250 mg/Kg oral", "value": 4}, {"measurement": "HOMA-IR", "setting": "[1]; After 5 weeks of treatment", "value": "1.66 ± 0.611"}, {"measurement": "R-QUICKI", "setting": "[1]; After 5 weeks of treatment", "value": "0.376 ± 0.031"}, {"measurement": "HbA1c", "setting": "[1]; After 5 weeks of treatment, mean ± SEM, n = 4", "value": "9.267 ± 0.802"}, {"measurement": "HOMA-IR", "setting": "[1]; Final (end of 5 weeks treatment), PGZ 30 mg/Kg, 8d 32 mg/Kg, mean ± SEM, n = 4", "value": "1.66 ± 0.61"}, {"measurement": "HOMA-IR", "setting": "[1]; Initial (beginning of treatment), PGZ 30 mg/Kg, 8d 32 mg/Kg, mean ± SEM, n = 4", "value": "4.22 ± 1.58"}, {"measurement": "HOMA-IR", "setting": "[1]; [4]", "value": "4.22 ± 1.577"}, {"measurement": "R-QUICKI", "setting": "[1]; [4]", "value": "0.318 ± 0.013"}, {"measurement": "HbA1c", "setting": "[1]; after the induction of T2D, before treatment, mean ± SEM, n = 4", "value": "8.633 ± 0.536"}, {"measurement": "adipogenic effect at necropsy", "setting": "[1]; after treatment", "value": "clear adipogenic effect"}, {"measurement": "polydipsia (water consumption)", "setting": "[1]; daily oral treatment", "value": "decreasing the polydipsia after the first week of treatment"}, {"measurement": "fasting blood glucose, subchronic", "setting": "[1]; daily oral, 5 weeks", "value": "lower blood glucose levels close to the normoglycemia of the healthy group"}, {"measurement": "redistribution of adipose tissue from visceral to subcutaneous fat", "setting": "[1]; necropsy", "value": "barely perceptible"}, {"measurement": "effect on total antioxidant capacity (TAC)", "setting": "[2]", "value": "did not improve TAC"}, {"measurement": "TAC Equivalent to Trolox", "setting": "[2]; [5]", "value": "79.26 ± 17.28", "unit": "µM"}, {"measurement": "TAC Equivalent to Trolox", "setting": "[2]; [6]", "value": "79.26 ± 17.28", "unit": "µM"}, {"measurement": "effect on IL-6 and TNF-α levels", "setting": "IL-6; IL-6 and TNF-α together", "value": "highest levels of both cytokines"}, {"measurement": "IL-6", "setting": "IL-6; [5]", "value": "887.53 ± 243.91", "unit": "pg/mL"}, {"measurement": "IL-6", "setting": "IL-6; [6]", "value": "887.53 ± 243.91", "unit": "pg/mL"}]}]}
